Test results published in US10858344B2, “Hydantoin containing deoxyuridine triphosphatase inhibitors” (CV6 Therapeutics (NI) Limited, priority 2016, dated 2020).

Assays:
[1] = test system: colorectal (HCT116 and SW620) cell line models; experiment: MTS growth inhibition assay; type: cell-based; details: 5-FU between 0 and 100 μmol/L; both colorectal cancer cell lines
Procedure: The Cell Titer AQueous MTS assay (Promega) is carried out according to the manufacturers guidelines. […] The combination effect is determined by the combination index (CI) method utilizing Calcusyn software (Biosoft, Ferguson, Mo.). Fraction affected (FA) is calculated from the percent growth inhibition: FA=[…]. CI values <1, synergism; 1-1.2, additive and >1.2, antagonism.
MTS growth inhibition assays are performed to evaluate the effectiveness of the test compounds alone and in combination with the fluoropyrimidine thymidylate synthase (TS) inhibitor 5-fluorouracil (5-FU) at inhibiting the growth of colorectal (HCT116 and SW620) cell line models. […] Simultaneous treatment with increasing concentrations of 5-FU and a test compound at fixed concentrations of 25 μmol/L is determined.

[2] = test system: colorectal (HCT116), breast (MCF-7) and non-small cell lung (H1299, A549, H358 and H460) cell line models; experiment: Colony forming assay; type: cell-based; details: FUdR between 0.5 and 2.5 μmol/L; all cell lines evaluated
Procedure: Colony forming assay showing the ability of colon (SW620, HCT116), non-small cell lung (A549, H460, H1299 and H358) and breast (MCF7) cancer cells to survive and proliferate following transient 24 hour exposure to test compounds, FUdR and combinations are determined. Specifically, cells are seeded at densities between 50 and 100 cells/well in 24-well plates. Twenty-four hours later, cells are treated with increasing concentrations of a rtest compound, a fixed dose of FUdR and combinations of these. After 24 hours, drug is removed, cells are rinsed and allowed to outgrow for 10-14 days. At the conclusion of the outgrowth, cells are fixed in 60% ice cold methanol and stained with 0.1% crystal violet, scanned and counted. Data is presented as percentage of untreated controls (mean±SD). Fraction affected and combination indexes are calculated according to the method of Chou and Talalay where <1 is indicative of a synergistic drug interaction.
Colony forming assays are performed to evaluate the effectiveness of test compounds alone and in combination with the fluoropyrimidine thymidylate synthase (TS) inhibitor fluorodeoxyuridine (FUdR) at reducing cancer cell viability in colorectal (HCT116), breast (MCF-7) and non-small cell lung (H1299, A549, H358 and H460) cell line models. […]

[3] = target: recombinant human deoxyuridine nucleotidohydrolase (dUTPase) (Homo sapiens (Human), UniProt P33316); experiment: fluorescence-based dUTPase inhibition assay; type: biochemical; details: mean over three concentrations, typically 100, 50 and 25 μmol/L, compared to in-run positive control
recombinant human deoxyuridine nucleotidohydrolase (dUTPase), sequence (P33316 other isoform, or with tags, fused parts or gaps): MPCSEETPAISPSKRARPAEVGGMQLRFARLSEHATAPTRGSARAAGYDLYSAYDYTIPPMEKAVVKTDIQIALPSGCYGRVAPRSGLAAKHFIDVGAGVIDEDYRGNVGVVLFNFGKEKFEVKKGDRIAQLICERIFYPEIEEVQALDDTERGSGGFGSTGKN
Description: Recombinant human deoxyuridine nucleotidohydrolase (dUTPase) is expressed and purified as described in Ladner R D, Carr S A, Huddleston M J, McNulty D E, Caradonna S J. J Biol Chem. 1996 Mar. 29; 271(13):7752-7. All drugs stocks are aliquoted and diluted as appropriate prior to use. The oligonucelotide primer, templates and fluorophore- and quencher-labeled detection probes are synthesized by Integrated DNA Technologies (Coralville, Iowa), subjected to polyacrylamide gel electrophoresis purification and reconstituted in Omnipur sterile nuclease-free water (EMD Chemicals USA, Gibbstown N.J.) at a stock concentration of 100 μmol/L. The two non-emissive (dark) quenching molecules incorporated into the detection probes include the Iowa black fluorescein quencher (IBFQ; absorption max 531 nm) and ZEN (non-abbreviation; absorption max 532 nm). The fluorescent label utilized is 6-FAM (5′-carboxyfluorescein; excitation max.=494 nm, emission max.=520 nm). Probes are further diluted to a working stock of 10 μmol/L and aliquoted to avoid repeated freeze/thaw cycles. AmpliTaq Gold DNA Polymerase, GeneAmp 10×PCR Buffer 2, MgCl2 and MicroAmp Optical 96-well Reaction Plates are purchased from Applied Biosystems (Carlsbad, Calif.). dNTPs are purchased individually at stock concentrations of 100 mmol/L from New England Biolabs at HPLC-certified >99% purity (Ipswich, Mass.).
Reaction mixtures contained primer, probe and template at an equimolar final concentration of 0.4 μmol/L. Magnesium chloride (MgCl2) is included at a final concentration of 2 mmol/L. Non-limiting dNTPs are included in the reaction mix in excess at a final concentration of 100 μmol/L (dUTP/dTTP is excluded). AmpliTaq Gold DNA polymerase is added at 0.875 U/reaction, 2.5 μl of 10×PCR buffer 2 added and nuclease-free ddH2O added to a final reaction volume of 25 μl. For dUTP inhibition analysis, the volume of ddH2O is further modified to accommodate an additional 1 μl of dUTPase (10 ng/μl) and 1 μl of inhibitor or DMSO control. Thermal profiling and fluorescence detection is performed using a customized thermal program on board a Roche Lightcycler LC480 Instrument II. For analysis of dNTPs, the thermal profile consisted of an 8 min 37° C. step followed by a 10 min 95° C. step to ‘hot-start’ the Taq polymerase and a primer extension time of up to 30 min at 60° C. Raw fluorescence spectra for 6-FAM is measured at specified time intervals to follow assay progression on board a Roche LightCycler 480 Software Version 1.5 and exported and analyzed in Microsoft Excel (Microsoft, Redmond Wash.) and Prism (GraphPad Software, La Jolla Calif.). Fluorescence values for blank reactions (limiting dNTP omitted) are subtracted to give normalized fluorescence units (NFU) to account for background fluorescence.
Test compounds are screened in a fluorescence-based assay. The assay employs a DNA polymerase-based approach utilizing an oligonucleotide template with 3 distinct regions: a 3′ primer binding region, a mid-template dUTP/thymidine triphosphate (TTP) detection region and a 5′ 6-[…] (FAM)-labeled probe binding region that incorporates a black hole quenching moiety. During the reaction, the probe and primer hybridize to the oligonucleotide template to form the template:primer:probe complex. When Taq polymerase binds to the primer in the TPP complex and dUTP is present, successful extension of the nascent strand occurs and the inherent 5′ to 3′ exonuclease activity of Taq polymerase cleaves and displaces the 6-FAM-labeled probe in a 5′ to 3′ direction, releasing the 6-FAM fluorophore from its proximity to the three quenchers. This displacement effectively disrupts the Förster resonance energy transfer (FRET) and the resulting fluorescence detected upon excitation is directly proportional to the amount of the dUTP available in the assay for incorporation. […]

## O=c1[nH]cc(F)c(=O)[nH]1 [5-FU, 5-fluorouracil]
[1]
  growth inhibition: dose-dependent increases in growth inhibition

## O=c1[nH]c(=O)n([C@H]2C[C@H](O)[C@@H](CO)O2)cc1F [FUdR, fluorodeoxyuridine]
[2]
  colonies formed: dose-dependent decreases in colonies formed

## CC1(C)C(=O)NC(=O)N1C/C=C/CCS(=O)(=O)NC1(c2ccc(F)c(OCC(F)F)c2)CC1 [compound 121, (E)-N-(1-(3-(2,2-difluoroethoxy)-4-fluorophenyl)cyclopropyl)-5-(5,5-dimethyl-2,4-dioxoimidazolidin-1-yl)pent-3-ene-1-sulfonamide]
[3]
  % relative inhibition vs. positive control: 21%

## C[C@H]1C(=O)NC(=O)N1C/C=C/CCS(=O)(=O)NC1(c2ccc(F)c(OCC(C)(C)O)c2)CC1 [compound 122, (S,E)-N-(1-(4-fluoro-3-(2-hydroxy-2-methylpropoxy)phenyl)cyclopropyl)-5-(5-methyl-2,4-dioxoimidazolidin-1-yl)pent-3-ene-1-sulfonamide]
[3]
  % relative inhibition vs. positive control: 40%

## C[C@H]1C(=O)NC(=O)N1COCCCS(=O)(=O)NC1(c2ccc(F)c(OCC3CC3)c2)CC1 [compound 124, (S)—N-(1-(3-(cyclopropylmethoxy)-4-fluorophenyl)cyclopropyl)-3-((5-methyl-2,4-dioxoimidazolidin-1-yl)methoxy)propane-1-sulfonamide]
[3]
  % relative inhibition vs. positive control: 153%

## C[C@@H](NS(=O)(=O)CC/C=C/CC1CC(=O)NC1=O)c1ccc(F)c(OCC2CC2)c1 (stereo partly drawn) [compound 125, (E)-N—((R)-1-(3-(cyclopropylmethoxy)-4-fluorophenyl)ethyl)-5-(2,5-dioxopyrrolidin-3-yl)pent-3-ene-1-sulfonamide]
[3]
  % relative inhibition vs. positive control: 71%

## C[C@@H](NS(=O)(=O)CCCCCC1CC(=O)NC1=O)c1ccc(F)c(OCC2CC2)c1 (stereo partly drawn) [compound 126, N—((R)-1-(3-(cyclopropylmethoxy)-4-fluorophenyl)ethyl)-5-(2,5-dioxopyrrolidin-3-yl)pentane-1-sulfonamide]
[3]
  % relative inhibition vs. positive control: 152%

## C[C@H](NS(=O)(=O)CCCCCN1CC(=O)NC1=O)c1ccc(F)c(OCCC2CC2)c1 [compound 128, (S)—N-(1-(3-(2-cyclopropylethoxy)-4-fluorophenyl)ethyl)-5-(2,4-dioxoimidazolidin-1-yl)pentane-1-sulfonamide]
[3]
  % relative inhibition vs. positive control: 53%
